Test results published in patent EP0170121A1, “2-Hydroxy-3-aryloxypropyl or 2-hydroxy-2-benzofuranyl ethyl tertiary amine having an anti-hyperglycaemic and/or anti-obesity activity” (BEECHAM GROUP PLC, priority 1984, dated 1986).
Structures can show the parent of a compound that is named as a salt. Marks after values point to notes of the source that are not given here.

Legend:
Assay type in all cases: in vivo
Female CD1 mice = assay: Effect on energy expenditure of mice (oxygen consumption, oral dosing); conditions: p.o. in water, percentage of the rate of energy expenditure of the mice dosed with water, dose differs per compound (Dose mg/kg p.o.); for Mean Energy Expenditure (0-3h): 0-3h after dosing; for Mean Energy Expenditure (0-21h): 0-21h after dosing
Experimental: Female CD1 mice each weighing approximately 24 g were given food and water ad lib before and during the experiment. The compounds were dissolved in water and these solutions were administered orally to each of 12 mice. A further 12 mice were dosed orally with water. The mice were placed in groups of threes in boxes through which air was drawn and the oxygen content of the air leaving the boxes was measured. The energy expenditure of the mice was calculated for 3 and 21 hours after dosing from the volume of air leaving the boxes and its oxygen content, following the principles described by J.B. de V. Weir, J. Physiol. (London) 109, 1-9 (1949). The results are expressed as a percentage of the rate of energy expenditure of the mice dosed with water.

Male Sprague-Dawley rats = assay: Effect on energy expenditure of rats (oxygen consumption, oral dosing); conditions: deprived of food, p.o. in water, percentage of the rate of energy expenditure of the rats dosed with water, dose differs per compound (Dose mg/kg p.o.); for Mean Energy Expenditure (0-3h): 0-3h after dosing; for Mean Energy Expenditure (0-21h): 0-21h after dosing
Experimental: Male Sprague-Dawley rats each weighing between 170-200 g were deprived of food for 16 hours before, and during the experiment. Water was provided ad lib at all times. The compounds were administered orally in water to 3 or 4 rats. A further 4 rats were dosed orally with water. The rats were placed in boxes through which air was drawn and the oxygen content of the air leaving the boxes was measured. The energy expenditure of the rats was calculated for 3 hours and for 21 hours after dosing from the volume of air leaving the boxes and its oxygen content, following the principles described by J.B. de V. Weir, J. Physiol. (London) 109, 1-9 (1949). The results are expressed as a percentage of the rate of energy expenditure of the rats dosed with water.

Female CFLP mice = assay: Hypoglycaemic activity: subcutaneous glucose load, area under blood glucose curve; conditions: female CFLP mice fasted 24 hours; compound orally 30 minutes before glucose 1 g/kg s.c.; 2 hour period; versus control mice given water; dose differs per compound (Dose µmol/kg)
Experimental: Female CFLP mice, weighing approximately 25 g, were fasted for 24 hours prior to the study. The compounds under study were administered orally as an aqueous solution to each of 6 mice. 30 minutes later a blood sample (20 µl) was obtained from the tail for the analysis of blood glucose. Immediately after taking this blood sample, glucose (1 g/kg body weight) was administered subcutaneously to each mouse. 6 mice were given water as a control. Blood samples were then obtained from each mouse at 30 minute intervals for 120 minutes.
Compounds that produced a significant (p<0.05) reduction of blood glucose, compared with control mice given water, at any time interval, were considered active. The area under the blood glucose curve over the 2 hour period after the administration of the glucose was calculated for each compound and compared with the value for control animals.

Structure (SMILES) | Mean Energy Expenditure (0-3h) (Female CD1 mice) [percentage] | Mean Energy Expenditure (0-21h) (Female CD1 mice) [percentage] | Mean Energy Expenditure (0-3h) (Male Sprague-Dawley rats) [percentage] | Mean Energy Expenditure (0-21h) (Male Sprague-Dawley rats) | % Reduction in Area under Blood Glucose Curve (Female CFLP mice) [%]
COC(=O)c1ccc(C[C@@H](C)N(C[C@@H](O)COc2ccccc2)C[C@@H](O)COc2ccccc2)cc1 [Example 2, Methyl 4-[(R)-2-[bis-[(R)-2-hdroxy-3-penoxypropyl]amino]propyl]benzoate, fumarate] | 122 | 97 | 114 | 100 percentage | –
CNC(=O)c1ccc(C[C@@H](C)N(C[C@H](O)COc2ccccc2)C[C@H](O)COc2ccccc2)cc1 [Example 3, N-Methyl 4-[(R)-2-[bis-[(S)-2-hydrpxy-3-phenoxypropyl]amino]propyl]benzamide, fumarate] | 133 | 109 | 114 | 100 percentage | 12
COC(=O)c1ccc(C[C@@H](C)N(C[C@@H](O)COc2ccccc2)C[C@H](O)c2ccccc2)cc1 [Example 5, Methyl 4-[(R)-2-[N-[(R)-2-hydroxy-2-phenethyl]-N-[(R)-2-hydroxy-3-phenoxypropyl]amino]propyl]benzoate hydrochloride] | 136 | 112 | – | – | 38
CNC(=O)c1ccc(C[C@@H](C)N(C[C@H](O)COc2ccccc2)C[C@H](O)c2ccccc2)cc1 [Example 6, N-Methyl 4-[(R)-2-[N'-[(R)-2-hydroxy-2-phenethyl]-N'-[(S)-2-hydroxy-3-phenoxypropyl]amino]propyl]benzamide] | 126 | 110 | 112 | 108 percentage | 13
CNC(=O)c1ccc(C[C@@H](C)N(C[C@@H](O)COc2ccccc2)C[C@H](O)c2ccccc2)cc1 [Example 7, N-Methyl 4-[(R)-2-[N'-[(R)-2-hydroxy-2-phenethyl]-N'-[(R)-2-hydroxy-3-phenoxypropyl]amino]propyl]benzamide] | 119 | 102 | – | – | 18
COC(=O)c1ccc(C[C@@H](C)N(CC(O)c2cc(Cl)c(N)c(Cl)c2)C[C@H](O)COc2ccccc2)cc1 (stereo partly drawn) [Example 10, Methyl 4-[(R)-2-[N-[2-(4-amino-3,5-dichlorophenyl]-2-hydroxyethyl]-N-[(S)-2-hydroxy-3-phenoxypropyl]amino]propyl benzoate] | 121 | 122 | – | – | 31
C[C@H](CCc1ccc(C(N)=O)cc1)N(C[C@H](O)COc1ccccc1)C[C@H](O)c1ccccc1 [Example 12, 4-[(R)-3-[N-(R)-2-Hydroxy-2-phenethyl-N-[(S)-2-hydroxy-3-phenoxypropyl]amino]butyl]benzamide] | 111 | 103 | 139 | 113 percentage | 28
Br.C[C@H](CCc1ccc(C(N)=O)cc1)N(C[C@H](O)COc1ccccc1)C[C@H](O)COc1ccccc1.O.O [Example 13, 4-[(R)-3-[Bis-[(S)-2-hydroxy-3-phenoxypropyl]amino]butyl]-benzamide, hydrobromide, dihydrate] | 103 | 105 | 108 | 106 percentage | 15
C[C@H](Cc1ccc(OCC(N)=O)cc1)N(C[C@H](O)COc1ccccc1)C[C@H](O)c1cccc(Cl)c1 [Example 19, 4-[(R)-2-[N-[(R)-2-(3-Chlorophenyl)-2-hydroxyethyl]-N-[(S)-2-hydroxy-3-phenoxypropyl]amino]propyl]phenoxyacetamide, hydrochloride, hemihydrate] | – | – | 120 | 106 percentage | 43
CCOC(=O)COc1ccc(CC[C@@H](C)N(C[C@H](O)COc2ccccc2)C[C@H](O)c2ccccc2)cc1 [Example 21, Ethyl 4-[(R)-3-[N-[(R)-2-hydroxy-2-phenethyl]-N-[(S)-2-hydroxy-3-phenoxypropyl]amino]butyl]phenoxyacetate, hydrochloride] | – | – | 110 | 107 percentage | –
C[C@H](Cc1ccc(OCCO)cc1)N(C[C@H](O)COc1ccccc1)C[C@H](O)c1ccccc1 [Example 22, 4-[(R)-2-[N-[(R)-2-Hydroxy-2-phenethyl]-N-[(S)-2-hydroxy 3-phenoxypropyl]amino]propyl]phenoxyethanol, hydrochloride, hemihydrate] | – | – | 120 | 107 percentage | –
COC(=O)COc1ccc(C[C@@H](C)N(C[C@H](O)COc2ccccc2)C[C@H](O)c2ccccc2)cc1 [Example 24, Methyl 4-[(R)-2-(N-[(R)-2-hydroxy-2-phenethyl]-N-[(S)-2-hydroxy-3-phenoxypropyl]amino]propyl]phenoxyacetate, hydrochloride, hemihydrate] | – | – | 146 | 122 percentage | –
C[C@H](COc1ccc(OCC(N)=O)cc1)N(C[C@H](O)COc1ccccc1)C[C@H](O)c1ccccc1 [Example 25, 4-[(R)-2-[N-[(R)-2-Hydroxy-2-phenethyl]-N-[(S)-2-hydroxy-3-phenoxypropyl]amino]propoxy]phenoxyacetamide, hydrochloride] | – | – | 126 | 115 percentage | –
CCOC(=O)COc1ccc(C[C@@H](C)N(CC(O)c2cc3ccccc3o2)C[C@H](O)COc2ccccc2)cc1.Cl (stereo partly drawn) [Example 26, Ethyl 4-[(R)-2-[N-[2-(2-benzofuranyl)-2-hydroxyethyl]-N-[(S)-2-hydroxy-3-phenoxypropyl]amino]propyl]phenoxyacetate, hydrochloride] | – | – | 142 | 117 percentage | 34
CCOC(=O)COc1ccc(C[C@@H](C)N(CC(O)c2cc3ccccc3o2)C[C@H](O)c2ccccc2)cc1 (stereo partly drawn) [Example 27, Ethyl 4-[(R)-2-[N-[(R)-2-hydroxy-2-phenethyl]-N-[2-(2-benzofuranyl)-2-hydroxyethyl]amino]propyl]phenoxyacetate hydrochloride] | – | – | 134 | 114 percentage | –
C[C@H](Cc1ccc(OCC(N)=O)cc1)N(C[C@@H](O)COc1ccccc1)C[C@H](O)c1ccc(O)cc1 [Example 28, 4-[(R)-2-[N-[(R)-2-Hydroxy-2-(4-hydroxyphenyl)ethyl]-N-[(R)-2-hydroxy-3-phenoxypropyl]amino]propyl]phenoxyacetamide] | – | – | 131 | 117* percentage | –
COC(=O)COc1ccc(CC(C)N(CC(O)COc2ccccc2)CC(O)c2cc(Cl)c(N)c(Cl)c2)cc1 (stereo not shown) [Example 29, Methyl 4-[2-[N-[2-(4-amino-3,5-dichlorophenyl)-2-bydroxy-ethyl]-N-[2-hydroxy-3-phenoxypropyl]amino]propyl]phenoxyacetate, hemifumarate] | – | – | 131 | 122* percentage | –
CC(Cc1ccc(OCC(N)=O)cc1)N(CC(O)COc1ccccc1)CC(O)c1cc(Cl)c(N)c(Cl)c1 (stereo not shown) [Example 30, 4-[2-[N-[2-(4-Amino-3,5-dichlorophenyl)-2-hydroxyethyl]-N-[2-hydroxy-3-phenoxypropyl]amino]propyl]phenoxyacetamide] | – | – | 129 | 116* percentage | –
